“Also recorded” adds a separate entry of the source.
Experiments:
DNMT1 = DNMT1 mRNA expression (qRT-PCR) in mouse mammary glands and tumors; format: in vivo; conditions: in utero exposure vs control mice
Description: Total RNA was extracted using an RNeasy lipid mini kit (Qiagen, CA), according to manufacturer's instructions. One […] of total RNA per sample was used as a template for oligo-dT primed cDNA synthesis with a Supterscript reverse transcriptase, using Taqman Reverse Transcription kit (Applied Biosystems, CA). The cDNA samples served then as templates for quantitative real time PCR analysis with specific primers for the target gene using QuantiTect SYBR green PCR kit (Qiagen Inc., Valencia, Calif.) and an ABI Prism 7900 Sequence Detection System. Each sample was run in triplicate on a 384-well plate, and the qPCR run was repeated twice. The Ct values were averaged from the triplicates for each sample. To normalize the target gene expression the ratio to control RNA was calculated, i.e. the averages of the Ct triplicates from the Dnmt1 gene were divided by the average of the triplicates from the 18S gene. To determine the fold change of the target gene expression the results are presented as 2^ΔCt, where ΔCt=CT^target−Ct^18S.
The primer sequences for m18S rRNA were as previously published by Wang et al. (27).
Mammary tumor latency was compared with the final tumor burden in utero EE2 and GEN exposed mice to control mice, and in utero EE2 and GEN exposed mice to control mice exposed to HDAC+DNMT inhibitors separately; analysis was done using one-way ANOVA. Cumulative tumor burden during 16 weeks of tumor monitoring in the three groups, separately in those mice not given HDAC+DNMT inhibitors and those treated with the epigenetic drugs, was analysed using repeated measures one-way ANOVA. Log rank analysis was performed to compare mammary tumor incidence in the control and in utero EE2 and GEN exposed mice, again separately in those mice not given HDAC+DNMT inhibitors and those treated with the epigenetic drugs. Data for changes in DNMT1 expression among the groups in the mammary glands and tumors were assessed using two-way ANOVA, followed by Fisher LSD test

[1] = Immediate adverse effects of dietary exposure in adult non-pregnant littermates of dams; format: in vivo, mice; conditions: last day of dietary exposure, data not shown
Method: For ethical reasons non-pregnant littermate females were used for blood collection instead of the dams, and the samples were taken on the last day of their dietary exposure. Blood was collected by heart puncture of anesthetized mice prior to euthanasia, and serum was separated by centrifugation (1000×g for 10 min) and stored frozen until hormone measurements.
In addition, possible immediate adverse effects of EE2, BPA and GEN exposure for adult mice were evaluated using the non-pregnant littermates of dams. Their body weights were recorded and the mammary gland morphology examined on the last day of their dietary exposure.

[2] = Litter size and pup weight in F1-F3 rat generations; format: in vivo, Sprague-Dawley rats; conditions: diet of the F0 dams; any of the three generations
Method: Pregnant dams were weighed once a week to monitor changes in weight gain. The birth weight of pups and number of pups per litter were recorded. To avoid litter-effect, pups were crossfostered 1-2 days after dams gave birth. Pups from 2-4 dams were pooled and housed in a litter of 8-10 pups per nursing dam (which had the same dietary/hormonal exposure during pregnancy as the pups' mothers). All pups were weaned on postnatal day 21.

mammary glands = test: Cell proliferation (Ki-67 immunohistochemistry) in PND50 mammary glands; format: in vivo, Sprague Dawley rats
Method: To determine whether the increase in DNA adduct formation may reflect increased cell proliferation, expression of Ki-67, a marker of cell proliferation, was assessed on PND50 mammary glands using immunohistochemistry. The ki-67 status of each sample was evaluated according to a modified version of the scoring system proposed by Allred et al. The total score for each sample was calculated as the sum of the estimated proportion of positive-staining cells ([…]) plus the estimated intensity of positive-staining cells (0-4).

DNA adducts = test: MDA-DNA adduct levels in mammary glands of F1-F3 rat offspring; format: in vivo, Sprague Dawley rats; conditions: F1-F3 generation offspring
mammary tumors [3] = test: DMBA-induced mammary tumorigenesis in F1-F3 offspring of rat dams fed HF or EE2 diet; format: in vivo, Sprague-Dawley rats
Method: Pregnant Sprague-Dawley rats (F0) were fed AI[…] control diet or an isocaloric AI[…] based HF diet, containing 43% energy from corn oil, throughout gestation. Another group of pregnant rats was fed AI[…] diet supplemented with 0.1 ppm ethinyl estradiol (EE2) from day 14 to day 20 of pregnancy. F1 females were mated with F1 males from the same group to produce the F2 generation. The F3 generation was produced in the same manner (FIG. 23). No sibling mating was carried out. […] AI[…] control diet (control, 17% energy from corn oil), isocaloric high fat diet (HF, 43% energy from corn oil) or ethinyl estradiol-supplemented AI[…] diet (EE2, 0.1 ppm). The HF diet was fed for dams through the duration of pregnancy (P) (21 days), while dams were fed EE2 supplemented diet between days P14-20. Once pups (F1) were born, all dams received the control diet. F1 and F2 females (n=8-10) were mated on PND 60 with males from the same group to produce the F2 and F3 generations. All F1 and F2 pregnant dams were fed control diet for the extent of pregnancy. Outcross experiments were also performed: F1 females or males exposed to EE2 or HF diet in utero were crossed with control males or females. […] Tumorigenesis (incidence and multiplicity) was monitored for 20 weeks. […] Louis, Mo.) in 1 ml of peanut oil. […] Tumor growth was measured using a caliper and the length, width, and height of each tumor were recorded. […] Differences in tumor latency and multiplicity were tested by t-test (or Mann-Whitney Rank Sum test) or one-way ANOVA (where appropriate, between groups comparisons after ANOVA were done using Dunn's multi-comparison procedure). Kaplan-Meier survival curves were used to compare differences in tumor incidence, followed by the log-rank test Tumor histopathology was analyzed.

mammary tumors [4] = test: MPA/DMBA mammary tumorigenesis in mice exposed in utero to EE2, GEN or BPA (Example 5); format: in vivo, C57BL/6 mice; conditions: mouse, in vivo
Description: Additions to the basic diet were as follows: 1) cornstarch [control]; 2) EE2 0.1 ppm; 3) BPA 0.155 ppm; 4) GEN 500 ppm.

miRNAs = test: miRNA expression in adult mammary glands of in utero exposed rats; format: in vivo
Method: Since several miRNAs are known to be suppressed by E2 in MCF-7 human breast cancer cells (Maillot et al. Cancer Res 2009), we determined whether persistent changes in miRNA expression may be seen in the adult mammary glands of rats exposed to E2 in utero. miRNAs were measured using applied Biosystems TaqManR Array Rodent MicroRNA.

[5] = F1 generation (daughters) vs controls
[6] = F2 generation (granddaughters) vs controls
[7] = F3 generation (great-granddaughters) vs controls

For `C#C[C@]1(O)CC[C@H]2[C@@H]3CCc4cc(O)ccc4[C@H]3CC[C@@]21C` [EE2, ethinyl estradiol], the “DNMT1 expression in mammary tumors” value (DNMT1) was “significantly lower”, the “expression of DNMT1 in mammary glands” value (DNMT1) was “an increase in the expression of DNMT1; also recorded: persistent up-regulation” and the “body weight or mammary epithelial development” value [1] was “No significant differences”. The “litter size or pups weight” value [2] was “did not affect”, the “cell proliferation by ki-67” value (mammary glands; F1 generation) was “non-significantly increased” and the “cell proliferation by ki-67” value (mammary glands; F2 generation, compared to the controls) was “significantly lower”. The “DNA adduct formation by measuring MDA levels” value (DNA adducts) was “mimicked the findings of changes in CYP1B1 expression”, the Mammary tumor incidence (mammary tumors [3]; [5]) was “higher” and the mammary tumor multiplicity (mammary tumors [3]; [5]) was “higher”. For the same molecule, the Mammary tumor incidence (mammary tumors [3]; [6]) was “neither tumor incidence (p=0.68) nor multiplicity (p=0.49) was statistically different”, the mammary tumor multiplicity (mammary tumors [3]; [6]) was “neither tumor incidence (p=0.68) nor multiplicity (p=0.49) was statistically different” and the tumor multiplicity (mammary tumors [3]; F2 outcross EE2♀×C♂ vs controls) was “significantly higher”. For the same molecule, the Mammary tumor incidence (mammary tumors [3]; F2 outcross, control ♀ x exposed ♂) was 33%, the Mammary tumor incidence (mammary tumors [3]; F2 outcross, exposed ♀ x control ♂) was 62% and the Mammary tumor incidence (mammary tumors [3]; [7]) was “also higher, but not statistically significant”. For the same molecule, the mammary tumor multiplicity (mammary tumors [3]; [7]) was “significantly higher”, the “mammary tumorigenesis (onset of tumor growth and cumulative tumor burden)” value (mammary tumors [4]) was “Enhanced mammary tumorigenesis” and the “expression of miR-26a, miR-101, miR-148, miR-152, miR-194, miR-26a/b” value (miRNAs; mammary glands of rats exposed in utero) was “suppressed”. For the same molecule, the “expression of several miRNAs in the mammary gland” value (miRNAs; maternal exposure) was “permanent down-regulation”.

From patent publication US20130324543A1, “REVERSAL OF HIGH BREAST CANCER RISK IN MAMMALS EXPOSED TO ESTROGENIC CHEMICALS IN UTERO BY ADULT EXPOSURE TO HDAC AND DNMT INHIBITORS” (Georgetown University, priority 2012, published 2013)
